Assay results: US20220096652A1, “ACETAL-BASED CLEAVABLE LINKERS” (Synaffix B.V., priority 2019, published 2022)
Entries after “also recorded” stand apart in the source; their conditions may differ.

Key:
[1] = Incubation in 1:1 PBS (pH 7.4) / DMF, UPLC-MS; format: physicochemical; details: pH 7.4, Papain NO, 1:1 PBS/DMF, overnight; based on peak area (UV 254 nm)
Experimental: To a 1:1 mixture of PBS (pH 7.4) and DMF (199 μL) was added a 10 mM solution of 10 in DMF (1 μL). The mixture was incubated overnight and analyzed by UPLC-MS. Intermediate 10-Int and DXd were not observed.
To a 1:1 mixture of PBS (pH 7.4) and DMF (199 μL) was added a 10 mM solution of 18 in DMF (1 μL). The mixture was incubated overnight and analysed by UPLC-MS. Intermediate 18-Int and DXd were not observed.
To a 1:1 mixture of PBS (pH 7.4) and DMF (199 μL) was added a 10 mM solution of 26 in DMF (1 μL). The mixture was incubated overnight and analysed by UPLC-MS. Intermediate 26-Int and DXd were not observed.

[2] = Negative control: incubation in histidine acetate buffer pH 6 without Papain, UPLC-MS; format: physicochemical; details: pH 6, Papain NO, 37° C., 18 h (10, 18) or 67 h (26); for Ratio DXd / s.m.: based on peak area (UV 254 nm)
Experimental: To an Eppendorf vial containing histidine acetate buffer (110 μL, 20 mM, pH 6) was added a solution of 10 in DMF (3 μL, 10 mM).
To an Eppendorf vial containing histidine acetate buffer (110 μL, 20 mM, pH 6) was added a solution of 18 in DMF (3 μL, 10 mM).
To an Eppendorf vial containing histidine acetate buffer (110 μL, 20 mM, pH 6) was added a solution of 26 in DMF (3 μL, 10 mM). […] The intermediate 26-Int was not observed.

[3] = biological target: T1, Papain (Carica papaya, UniProt P00784); experiment: Papain digestion of linker-drug in histidine acetate buffer, UPLC-MS; format: in vitro ADME; details: pH 6, Papain YES, 37° C., 19 h (10, 18) or 67 h (26)
T1 sequence (P00784 134-345): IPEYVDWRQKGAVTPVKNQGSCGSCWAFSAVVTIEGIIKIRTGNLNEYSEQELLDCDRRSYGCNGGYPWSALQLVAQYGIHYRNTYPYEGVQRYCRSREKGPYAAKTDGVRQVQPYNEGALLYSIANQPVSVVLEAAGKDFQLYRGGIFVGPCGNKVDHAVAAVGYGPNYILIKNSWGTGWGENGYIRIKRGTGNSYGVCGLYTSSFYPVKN
Experimental: To an Eppendorf vial containing histidine acetate buffer (50 μL, 20 mM, pH 6) were added a solution of 10 in DMF (3 μL, 10 mM) and a Papain solution in histidine acetate buffer (0.5 mg/mL, 20 mM buffer, pH 6).
To an Eppendorf vial containing histidine acetate buffer (50 μL, 20 mM, pH 6) were added a solution of 18 in DMF (3 μL, 10 mM) and a Papain solution in histidine acetate buffer (0.5 mg/mL, 20 mM buffer, pH 6).
To an Eppendorf vial containing histidine acetate buffer (50 μL, 20 mM, pH 6) were added a solution of 26 in DMF (3 μL, 10 mM) and a Papain solution in histidine acetate buffer (0.5 mg/mL, 20 mM buffer, pH 6).

SMILES | Ratio DXd / s.m. [1] | Ratio DXd / s.m. [2] | Formation of DXd [3] | Formation of DXd [2]
CC[C@@]1(O)C(=O)OCc2c1cc1n(c2=O)Cc2c-1nc1cc(F)c(C)c3c1c2[C@@H](NC(=O)COCOCc1ccc(NC(=O)[C@H](C)NC(=O)[C@@H](NC(=O)OCCOCCNC(=O)OC[C@@H]2[C@@H]4CCC#CCC[C@@H]42)C(C)C)cc1)CC3 [Compound 10] | 0 | 0 | only a very small amount of material was transformed into DXd; also recorded: + / − | –
CC[C@@]1(O)C(=O)OCc2c1cc1n(c2=O)Cc2c-1nc1cc(F)c(C)c3c1c2[C@@H](NC(=O)COC(C)OCc1ccc(NC(=O)[C@H](C)NC(=O)[C@@H](NC(=O)OCCOCCNC(=O)OC[C@@H]2[C@@H]4CCC#CCC[C@@H]42)C(C)C)cc1)CC3 (stereo partly shown) [Compound 18] | 0 | 0 | – | –
CC[C@@]1(O)C(=O)OCc2c1cc1n(c2=O)Cc2c-1nc1cc(F)c(C)c3c1c2[C@@H](NC(=O)COC1(OCc2ccc(NC(=O)[C@H](C)NC(=O)[C@@H](NC(=O)OCCOCCNC(=O)OC[C@@H]4[C@@H]5CCC#CCC[C@@H]54)C(C)C)cc2)CCCCC1)CC3 [Compound 26] | 0 | – | – | partial conversion of 26 into DXd; also recorded: + / −
